Experimental data taken from US11261174B2, “Pyrazole O-linked carbamoyl cyclohexyl acids as LPA antagonists” (BRISTOL-MYERS SQUIBB COMPANY, priority 2017, dated 2022).

Target: T1, LPA1 (Homo sapiens, UniProt Q92633)
T1 sequence (Q92633 whole entry): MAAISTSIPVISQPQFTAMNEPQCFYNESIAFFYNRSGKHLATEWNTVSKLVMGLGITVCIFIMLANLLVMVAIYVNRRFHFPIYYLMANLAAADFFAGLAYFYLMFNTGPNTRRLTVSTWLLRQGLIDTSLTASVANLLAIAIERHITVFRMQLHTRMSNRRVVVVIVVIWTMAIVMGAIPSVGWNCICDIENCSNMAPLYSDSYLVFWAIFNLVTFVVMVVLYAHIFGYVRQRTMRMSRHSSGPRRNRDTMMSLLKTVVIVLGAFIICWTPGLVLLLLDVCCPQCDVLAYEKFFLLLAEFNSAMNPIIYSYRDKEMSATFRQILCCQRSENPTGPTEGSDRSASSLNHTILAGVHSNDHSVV
Assay: LPA1 functional antagonist assay (LPA-induced calcium flux)
Type: cell-based
Design: expressed in transfected cells; host or cells: Chinese hamster ovary (CHO) cells
Conditions: CHO cells overexpressing human LPA1; calcium flux induced by 10 nM LPA; read-out: hLPA1 IC50
Protocol: The effectiveness of compounds of the present invention as LPA1 inhibitors can be determined in an LPA1 functional antagonist assay as follows:
Chinese hamster ovary cells overexpressing human LPA1 were plated overnight (15,000 cells/well) in poly-D-lysine coated 384-well microplates (Greiner bio-one, Cat #781946) in DMEM/F12 medium (Gibco, Cat #11039). Following overnight culture, cells were loaded with calcium indicator dye (AAT Bioquest Inc, Cat #34601) for 30 minutes at 37° C. The cells were then equilibrated to room temperature for 30 minutes before the assay. Test compounds solubilized in DMSO were transferred to 384 well non-binding surface plates (Corning, Cat #3575) using the Labcyte Echo acoustic dispense and diluted with assay buffer [1×HBSS with calcium/magnesium (Gibco Cat #14025-092), 20 mM HEPES (Gibco Cat #15630-080) and 0.1% fatty acid free BSA (Sigma Cat # A9205)] to a final concentration of 0.5% DMSO. Diluted compounds were added to the cells by FDSS6000 (Hamamatsu) at final concentrations ranging from 0.08 nM to 5 μM. and were then incubated for 20 min at room temperature at which time LPA (Avanti Polar Lipids Cat #857130C) was added at final concentrations of 10 nM to stimulate the cells. […] IC50 values were determined by fitting data to a 4-parameter logistic equation (GraphPad Prism, San Diego Calif.).
`C[C@@H](C1CC1)N(C)C(=O)OCc1c(-c2ccc(O[C@H]3CCC[C@H](C(=O)O)C3)cc2)cnn1C` [Example 57] gave an IC50 of 192 nM.
`Cc1nc(-c2cnn(C)c2COC(=O)N2CC(C)(C)C2)ccc1O[C@H]1CCC[C@H](C(=O)O)C1` [Example 90] showed an IC50 of 309 nM.
With `CCCCN(C)C(=O)OCc1c(-c2ncc(O[C@H]3CCC[C@H](C(=O)O)C3)c(C)n2)cnn1C` [Example 67] the IC50 was 59 nM.
In the case of `Cc1nc(-c2cnn(C)c2COC(=O)N(C)CC2CCCC2)ccc1O[C@H]1CCC[C@H](C(=O)O)C1` [Example 13], the IC50 is reported as 244 nM.
Compound `Cc1nc(-c2cnn(C)c2COC(=O)N(C)CC23CC(F)(C2)C3)ncc1O[C@H]1CCC[C@H](C(=O)O)C1` [Example 76] has an IC50 of 346 nM.
Work on `CN(CC1CCC1)C(=O)OCc1c(-c2ccc(O[C@H]3CCC[C@H](C(=O)O)C3)cc2)cnn1C` [Example 52] yielded an IC50 of 53 nM.
Compound `CN(CC1CC1)C(=O)OCc1c(-c2ccc(O[C@H]3CCC[C@H](C(=O)O)C3)cn2)cnn1C` [Example 4] has an IC50 of 165 nM.
Compound `CCCC(C)(C)N(C)C(=O)OCc1c(-c2ccc(O[C@@H]3CCC[C@@H](C(=O)O)C3)cn2)cnn1C` (racemic) [Example 31] has an IC50 of 51 nM.
For `CCCCCN(C)C(=O)OCc1c(-c2ncc(O[C@H]3CCC[C@H](C(=O)O)C3)c(C)n2)cnn1C` [Example 75], the IC50 was 82 nM.
`Cc1cc(-c2cnn(C)c2COC(=O)N(C)C(C)C2CCC2)ccc1O[C@H]1CCC[C@H](C(=O)O)C1` (some centres unmarked) [Example 46] showed an IC50 of 27 nM.
`Cc1nc(-c2cnn(C)c2COC(=O)N(C)C(C2CC2)C2CC2)ccc1O[C@H]1CCC[C@H](C(=O)O)C1` [Example 23] showed an IC50 of 28 nM.
`Cc1nc(-c2cnn(C)c2COC(=O)N(C)CCC2CC2)ccc1O[C@H]1CCC[C@H](C(=O)O)C1` [Example 19] gave an IC50 of 9 nM.
For `C[C@H](C1CC1)N(C)C(=O)OCc1c(-c2ccc(O[C@H]3CCC[C@H](C(=O)O)C3)cn2)cnn1C` [Example 1, (1S,3S)-3-((6-(5-(((((R)-1-cyclopropylethyl)(methyl)carbamoyl)oxy)methyl)-1-methyl-1H-pyrazol-4-yl)pyridin-3-yl)oxy)cyclohexane-1-carboxylic Acid], the IC50 was 67 nM.
With `CCCCN(C)C(=O)OCc1c(-c2cnc(O[C@H]3CCC[C@H](C(=O)O)C3)c(C)n2)cnn1C` (racemic) [Example 7] the IC50 was 40 nM.
Compound `Cc1nc(-c2cnn(C)c2COC(=O)N(C)CC2CC2)ncc1O[C@H]1CCC[C@H](C(=O)O)C1` [Example 69] has an IC50 of 293 nM.
In the case of `CCCC(C)(C)N(C)C(=O)OCc1c(-c2ccc(O[C@@H]3CCC[C@@H](C(=O)O)C3)c(C)n2)cnn1C` (racemic) [Example 28], the IC50 is reported as 140 nM.
In the case of `CCCCN(C)C(=O)OCc1c(-c2ccc(O[C@H]3CCC[C@H](C(=O)O)C3)c(C)c2)cnn1C` [Example 60], the IC50 is reported as 11 nM.
`CCCCN(C)C(=O)OCc1c(-c2ccc(O[C@H]3CCC[C@H](C(=O)O)C3)c(C)n2)cnn1C` [Example 20] gave an IC50 of 16 nM.
For `CN(CC1CC1)C(=O)OCc1c(-c2ccc(O[C@H]3CCC[C@H](C(=O)O)C3)cc2)cnn1C` [Example 51], the IC50 was 399 nM.
`C[C@H](C1CC1)N(C)C(=O)OCc1c(-c2ccc(O[C@H]3CCC[C@H](C(=O)O)C3)cc2)cnn1C` [Example 58] gave an IC50 of 38 nM.
In the case of `Cc1nc(-c2cnn(C)c2COC(=O)N(C)CC2CCC2)ncc1O[C@H]1CCC[C@H](C(=O)O)C1` [Example 80], the IC50 is reported as 71 nM.
`Cc1nc(-c2cnn(C)c2COC(=O)N(C)C[C@H]2C[C@@H]2C)ncc1O[C@H]1CCC[C@H](C(=O)O)C1` [Example 92] gave an IC50 of 45 nM.
In the case of `CN(CC1CCC1)C(=O)OCc1c(-c2ccc(O[C@H]3CCC[C@H](C(=O)O)C3)cn2)cnn1C` [Example 3], the IC50 is reported as 48 nM.
Compound `Cc1cc(-c2cnn(C)c2COC(=O)N(C)C(C)C2CC2)ccc1O[C@H]1CCC[C@H](C(=O)O)C1` (some centres unmarked) [Example 47] has an IC50 of 27 nM.
For `Cc1nc(-c2cnn(C)c2COC(=O)N(C)C2CCCC2)cnc1O[C@H]1CCC[C@H](C(=O)O)C1` [Example 9], the IC50 was 34 nM.
`CCc1nc(-c2cnn(C)c2COC(=O)N(C)CC2CC2)ncc1O[C@H]1CCC[C@H](C(=O)O)C1` [Example 85] showed an IC50 of 162 nM.
In the case of `Cc1nc(-c2cnn(C)c2COC(=O)N(C)Cc2cccc(Cl)c2)ccc1O[C@H]1CCC[C@H](C(=O)O)C1` [Example 14], the IC50 is reported as 1120 nM.
`CC(C1CCC1)N(C)C(=O)OCc1c(-c2ccc(O[C@H]3CCCC(C(=O)O)C3)cn2)cnn1C` (some centres unmarked) [Example 2] gave an IC50 of 136 nM.
`Cc1nc(-c2cnn(C)c2COC(=O)N(C)CCCCF)ncc1O[C@H]1CCC[C@H](C(=O)O)C1` [Example 74] showed an IC50 of 77 nM.
`CCCCN(C)C(=O)OCc1c(-c2ccc(O[C@H]3CCC[C@H](C(=O)O)C3)cc2)cnn1C` [Example 64] gave an IC50 of 23 nM.
Work on `CC(C)CCN(C)C(=O)OCc1c(-c2ccc(O[C@@H]3CCC[C@@H](C(=O)O)C3)cn2)cnn1C` (racemic) [Example 34] yielded an IC50 of 33 nM.
Work on `CN(Cc1ccccc1)C(=O)OCc1c(-c2ccc(O[C@@H]3CCC[C@@H](C(=O)O)C3)cc2)cnn1C` [Example 36] yielded an IC50 of 376 nM.
In the case of `Cc1nc(-c2cnn(C)c2COC(=O)N(C)C2(C3CC3)CC2)ccc1O[C@H]1CCC[C@H](C(=O)O)C1` [Example 17], the IC50 is reported as 43 nM.
In the case of `CCCC1(N(C)C(=O)OCc2c(-c3ccc(O[C@H]4CCC[C@H](C(=O)O)C4)c(C)n3)cnn2C)CC1` [Example 18], the IC50 is reported as 55 nM.
`CCc1nc(-c2cnn(C)c2COC(=O)N(C)C2CCC2)ncc1O[C@H]1CCC[C@H](C(=O)O)C1` [Example 86] gave an IC50 of 217 nM.

Target: T1, LPA1
Assay: not given
Conditions: IPF patients, 26-week clinical trial; cited from earlier work
For `Cc1noc(-c2ccc(-c3ccc(C4(C(=O)O)CC4)cc3)cc2)c1NC(=O)O[C@H](C)c1ccccc1` [BMS-986020], the “rate of FVC (forced vital capacity) decline” value is listed as “significantly reduce”.

System: mouse epithelial renal cell line, MCT
Assay: not given
Conditions: LPA treatment of MCT cells, co-treatment; cited from earlier work
In the case of `Cc1noc(-c2ccc(CSCCC(=O)O)cc2)c1NC(=O)OC(C)c1ccccc1Cl` (centres unmarked) [Ki16425], the “induction of CTGF expression” value is listed as “almost completely suppressed”.

System: pancreatic cancer cell lines
Assay: not given
Conditions: LPA-induced and ascites-induced; highly peritoneal metastatic pancreatic cancer cell line; cited from earlier work
For `Cc1noc(-c2ccc(CSCCC(=O)O)cc2)c1NC(=O)OC(C)c1ccccc1Cl` (centres unmarked) [Ki16425], the invasion activity is listed as “blocked”.

Same assay, conditions: in response to LPA and peritoneal fluid (ascites) from pancreatic cancer patients; cited from earlier work
For `Cc1noc(-c2ccc(CSCCC(=O)O)cc2)c1NC(=O)OC(C)c1ccccc1Cl` (centres unmarked) [Ki16425], the in vitro migration is listed as “effectively blocked”.

System: UUO mice
Assay: not given
Conditions: cited from earlier work
In the case of `Cc1noc(-c2ccc(CSCCC(=O)O)cc2)c1NC(=O)OC(C)c1ccccc1Cl` (centres unmarked) [Ki16425], the “development of renal fibrosis” value is listed as “closely resembled the profile of LPA1 (−/−) mice”.

System: human foetal lung fibroblasts
Assay: not given
Conditions: induced by BAL obtained from IPF patients; cited from earlier work
In the case of `Cc1noc(-c2ccc(CSCCC(=O)O)cc2)c1NC(=O)OC(C)c1ccccc1Cl` (centres unmarked) [Ki16425], the “chemotaxis of human foetal lung fibroblasts” value is given as “blocked”.
